Measured values taken from US8841633B2, “Method and apparatus for detecting pharmaceuticals in a sample” (priority 2009, dated 2014).
Read-outs that look alike come from different tables or passages of the source.

Tests used:
[1] = time-resolved fluorescence of isolated warfarin in PBS; assay type: physicochemical; details: excitation 334 nm
[2] = mean of three ± SEM
Procedure: The values are given as mean values of three measurements±standard error of the mean.
(§1) In connection with the retrieval of the blood sample, the patients respective International Normalized Ratio (INR) were measured, which is a well known type of measure indicative of the coagulation of the blood.

[3] = tested on: coagulation of the blood; assay: International Normalized Ratio (INR) of patients treated with warfarin; assay type: in vivo, human
Procedure: as §1

[4] = blood sample of patient no. 1 treated with warfarin
[5] = blood sample of patient no. 2 treated with warfarin

excited state lifetime τ1 (unresolved) [1]: ≤ 100 ps
Amplitude A1 [2, 4]: 69.4 ± 0.2%
Amplitude A2 [2, 4]: 21.0 ± 0.2%
Amplitude A3 [2, 4]: 9.6 ± 0.1%
Fluorescence lifetime τ1 [2, 4]: 0.10 ± 0.00 ns
Fluorescence lifetime τ2 [2, 4]: 1.50 ± 0.04 ns
Fluorescence lifetime τ3 [2, 4]: 4.05 ± 0.01 ns
Amplitude A1 [2, 5]: 96.0 ± 0.3%
Amplitude A3 [2, 5]: 4.0 ± 0.3%
Fluorescence lifetime τ1 [2, 5]: 0.06 ± 0.00 ns
Fluorescence lifetime τ3 [2, 5]: 2.77 ± 0.02 ns
Structure (SMILES): CC(=O)CC(c1ccccc1)c1c(O)c2ccccc2oc1=O (stereo not shown) [Warfarin, warfarin]
INR value ([3]; patient no. 1 treated with warfarin): 3.0
INR value ([3]; patient no. 2 treated with warfarin): 1.9
